The values that follow come from US5621007A, “Method for regulation of transmembrane chloride conductance” (Bristol-Myers Squibb Company, priority 1995, dated 1997).

“Also recorded” adds a separate entry of the source. Where two headings read alike, the source gives them in different places.

One test relates to chloride channels. The following applies: cited from earlier work.
In test [1] the target is T1, wild-type CFTR (Homo sapiens, UniProt P13569). The experiment in a line: 125I efflux from Vero cells expressing wild-type CFTR. Type of test: cell-based.
For test [2], the system named is mock transfected cells.
Test [3] has as its target T1, wild-type CFTR. The experiment in a line: Whole-cell patch clamp, Vero cells expressing wild-type CFTR. Type of test: cell-based.
Test [4] has as its system ΔF508 CFTR. The experiment in a line: Two-electrode voltage clamp, Xenopus oocytes expressing ΔF508 CFTR. Type of test: cell-based. (In general: Two-electrode voltage clamp is typically applied to oocytes expressing channels or transporters.)
Test [5] relates to uninjected or H2 O-injected oocytes. The experiment in a line: Two-electrode voltage clamp, uninjected or H2O-injected oocytes (control). Type of test: cell-based, Xenopus laevis. The following applies: NS004, uninjected or H2O-injected oocytes. On the procedure: Oocytes were surgically removed from Xenopus laevis anesthetized with 0.12% 3-aminobenzoic acid ethyl ester (Tricaine). Oocytes were first rinsed with Ca^2+ -free OR2 medium (82.5 mM NaCl, 1 mM KCl, 1 mM MgCl2, 5 mM HEPES, pH 7.5 with NaOH) followed by incubation in collagenase (1.5 mg/ml prepared in Ca^2+ -free OR2 medium) for 4 hours at room temperature. After enzyme treatment, cells were rinsed 8× with OR2 medium and then rinsed again 8× with ND96 medium (90 mM NaCl, 1 mM KCl, 1 mM CaCl2, 1 mM MgCl2, 5 mM HEPES, pH 7.5 with NaOH). Oocytes were stored overnight at 17° C. Late stage V and early stage VI cells that were visualized to be fully defolliculated to the vitelline envelope were selected for microinjection.
Electrophysiological evaluation of the effects of putative CFTR openers were assessed in oocytes expressing wild-type and ΔF508 CFTR constructs using standard two-electrode voltage clamp techniques. Generally, a family of currents was generated under control conditions (incubated in Modified Barth's Solution, MBS, a typical physiological saline medium, in the absence of drugs), with no current or small currents generated under drug-free conditions. […] Data were collected and analyzed using a computer equipped with an A/D interface and appropriate acquisition and analysis software.

Test [6] deals with ΔF508 CFTR. The test can be described thus: 125I efflux from Vero cells expressing ΔF508 CFTR. Type of test: cell-based.
Test [7] has as its system mock transfected cells. The experiment in a line: Whole-cell patch clamp, mock transfected Vero cells. Type of test: cell-based, monkey. For orientation: Patch clamp records ionic current or voltage across a cell membrane.
The subject of test [8] is ΔF508 mutant CFTR Cl- channels. Type of test: cell-based.
The test system of test [9] is ΔF508 CFTR. The test can be described thus: Whole-cell patch clamp, Vero cells expressing ΔF508 CFTR. Type of test: cell-based.
For test [10], the system named is wild-type CFTR Cl- channels. The experiment in a line: Outside-out single channel patch clamp, Vero cells expressing wild-type CFTR. Type of test: cell-based. The following applies: sub-micromolar to micromolar NS004, outside-out excised patches.
Test [11] concerns the target T1, wild-type CFTR. The test can be described thus: Two-electrode voltage clamp, Xenopus oocytes expressing wild-type CFTR. Type of test: cell-based.
Test [12] deals with Control cells (not expressing CFTR constructs). The test can be described thus: Outside-out patch clamp, control Vero cells not expressing CFTR constructs. Type of test: cell-based, monkey. Here is the method: Subsequently, various concentrations of NS004 were tested for direct effects on ^125 I efflux in cells expressing wild-type and ΔF508 CFTR constructs, the ability of NS004 to affect the anion efflux stimulated by cAMP (produced by application of Forskolin) was also tested. In addition, both whole-cell and single-channel (outside-out) patch clamp configurations were employed to directly determine the effects of cAMP (produced by addition of Forskolin), NS004, and the combination of cAMP and NS004 on whole-cell and single channel Cl^- currents in infected Vero cells under nominally sodium and potassium-free conditions. In all cases data were collected and analyzed by computer.

Where [13] appears, read: NS004 alone at the flux-experiment concentrations, Vero cells.

T1 sequence (P13569 whole entry): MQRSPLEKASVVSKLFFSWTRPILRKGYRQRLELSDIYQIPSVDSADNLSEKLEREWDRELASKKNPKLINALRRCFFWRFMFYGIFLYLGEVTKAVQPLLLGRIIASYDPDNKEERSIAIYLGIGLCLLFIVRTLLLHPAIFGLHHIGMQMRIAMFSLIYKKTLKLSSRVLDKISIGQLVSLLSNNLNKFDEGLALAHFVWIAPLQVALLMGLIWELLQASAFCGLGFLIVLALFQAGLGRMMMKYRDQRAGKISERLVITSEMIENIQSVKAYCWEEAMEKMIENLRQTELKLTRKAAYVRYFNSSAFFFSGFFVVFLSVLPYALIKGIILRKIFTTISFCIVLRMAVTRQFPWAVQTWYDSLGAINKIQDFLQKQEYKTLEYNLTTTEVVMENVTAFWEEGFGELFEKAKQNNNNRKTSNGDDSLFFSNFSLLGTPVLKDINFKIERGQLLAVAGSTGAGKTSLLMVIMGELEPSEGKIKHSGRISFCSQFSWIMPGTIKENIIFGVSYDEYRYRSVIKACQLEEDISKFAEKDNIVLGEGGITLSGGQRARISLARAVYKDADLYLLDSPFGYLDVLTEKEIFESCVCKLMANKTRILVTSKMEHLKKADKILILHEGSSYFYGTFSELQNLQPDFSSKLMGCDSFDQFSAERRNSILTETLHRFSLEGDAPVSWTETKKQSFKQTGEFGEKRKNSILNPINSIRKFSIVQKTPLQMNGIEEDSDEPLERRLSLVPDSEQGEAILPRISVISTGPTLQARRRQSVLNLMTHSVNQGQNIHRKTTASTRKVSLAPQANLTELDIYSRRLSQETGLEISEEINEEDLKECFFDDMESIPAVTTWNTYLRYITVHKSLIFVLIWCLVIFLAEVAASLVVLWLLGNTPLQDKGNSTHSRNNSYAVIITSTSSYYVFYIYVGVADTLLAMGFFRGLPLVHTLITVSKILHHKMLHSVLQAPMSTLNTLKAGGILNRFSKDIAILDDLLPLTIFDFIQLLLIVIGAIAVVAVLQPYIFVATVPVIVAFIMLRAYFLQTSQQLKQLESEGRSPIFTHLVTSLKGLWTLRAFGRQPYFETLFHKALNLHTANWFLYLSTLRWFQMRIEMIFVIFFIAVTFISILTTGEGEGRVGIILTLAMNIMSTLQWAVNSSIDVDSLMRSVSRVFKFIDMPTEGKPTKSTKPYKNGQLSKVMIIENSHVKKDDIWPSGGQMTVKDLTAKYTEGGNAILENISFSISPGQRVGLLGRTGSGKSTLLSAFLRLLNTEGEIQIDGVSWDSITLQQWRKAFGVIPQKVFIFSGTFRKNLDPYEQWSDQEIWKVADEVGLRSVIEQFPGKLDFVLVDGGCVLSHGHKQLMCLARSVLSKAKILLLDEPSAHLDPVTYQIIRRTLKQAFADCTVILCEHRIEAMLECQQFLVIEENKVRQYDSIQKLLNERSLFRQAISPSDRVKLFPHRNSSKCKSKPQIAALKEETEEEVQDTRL

Take `C1CCN2C[C@@H]3C[C@@H](CN4CCCC[C@@H]34)[C@H]2C1` [sparteine, dodecahydro-7,14-methano-2H,6H-di-pyrido[1,2-a;1',2'-e][1,5]diazocine]: the “effect on chloride channels” value in the test with chloride channels (higher doses) is reported as “blocking chloride channels”; in the test with chloride channels (low doses), “activating chloride channels”.

In the case of `O=c1[nH]c2cc(C(F)(F)F)ccc2n1-c1cc(Cl)ccc1O` [NS004, 5-trifluoromethyl-1-(5-chloro-2-hydroxyphenyl)-1,3-dihydro-2H-benzimidazol-2-one], at wild-type CFTR [1] (NS004 20 μM alone, Vero cells expressing CFTR (FIG. 2)), the “125I efflux relative to control” value is “increased relative to control”. For the same compound, the “125I-flux over control values” on wild-type CFTR [1] (NS004 alone, 0.1-20 micromolar concentration range, Vero cells, wild-type CFTR) was “increased modestly over control values; also recorded: only modest direct increases in ^125 I efflux”. Besides, the total anion flux entry on wild-type CFTR [1] (both cAMP and NS004, Vero cells, wild-type CFTR) is “did not significantly increase total anion flux”. For the same compound, the “response on 125I efflux” value with mock transfected cells [2] is on record as “no response”. The entries for the “whole cell inward and outward Cl- current” value at wild-type CFTR [3] (setting [13]) and in the test with ΔF508 CFTR [9] (setting [13]) were “large to moderate increases; also recorded: significant increase in the Cl^- current” and “large to moderate increases; also recorded: smaller direct increase in whole cell Cl^- current”, respectively. For the same compound, the “whole cell Cl- current relative to cAMP alone” value on wild-type CFTR [3] (combination of cAMP stimulation and NS004, Vero cells) was “only marginal increases in current; also recorded: only a small potentiation of cAMP-stimulated current”. For the same compound, in the test with ΔF508 CFTR [4] (NS004 applied alone, oocytes expressing ΔF508 CFTR), the chloride current entry is on record as “only a small enhancement of chloride current; also recorded: smaller direct increase in whole cell Cl^- current”. In the test on ΔF508 CFTR [4] (NS004 simultaneously applied with cAMP and related agents, oocytes expressing ΔF508), the “level of cAMP stimulation of channel activity (Cl- current)” value is “greatly exacerbated the level of cAMP stimulation of channel activity; also recorded: profound potentiation of cAMP stimulation of Cl^- current”. In the test with ΔF508 CFTR [4] (both cAMP and NS004 present, oocytes expressing ΔF508), the “time course of cAMP-stimulated chloride current increase” value is listed as “greatly reduced (response time enhanced)”. Besides, the “increase in Cl- current” value in [5] is “never seen”. The “time course of the increase in anion flux produced by cAMP” value in the test on ΔF508 CFTR [6] (cAMP plus NS004, Vero cells, ΔF508 CFTR) is given as “reduced the slow time course”. Further, the “levels of 125I efflux attained” value in the test on ΔF508 CFTR [6] (co-administration of cAMP and NS004, ΔF508 CFTR, compared with cAMP in wild-type CFTR cells) is “comparable to the efflux stimulated by cAMP in cells expressing wild-type CFTR”. Also, the “amplitude of the increase in 125I efflux produced by cAMP” value in the test on ΔF508 CFTR [6] (coapplication of cAMP (Forskolin, 5 μM in FIG. 2) and NS004, Vero cells, ΔF508 CFTR) was “greatly potentiated; also recorded: greatly enhanced the amplitude; also recorded: robust potentiation of ^125 I efflux”. In the test on ΔF508 CFTR [6] (direct application of NS004 alone, Vero cells, ΔF508 CFTR), the 125I-flux entry is recorded as “only marginally effected; also recorded: only modest direct increases in ^125 I efflux”. Moreover, the “effect on whole cell Cl- current” value with mock transfected cells [7] is “no effects”. Further, the “opening / open probability of single Cl- channels” value in test [8] is “rapid and reversible direct increase in the opening of these channels; also recorded: potently and directly opened Cl^- channels; also recorded: greatly increased the open probability”; in [10], “potently and directly opened Cl^- channels; also recorded: greatly increased the open probability”. Besides, the “maximal stimulation of Cl- current by cAMP” value in the test on ΔF508 CFTR [9] (cAMP plus NS004, Vero cells) is on record as “potently potentiated the maximal stimulation of Cl^- current by cAMP; also recorded: profound potentiation of cAMP stimulation of Cl^- current”. Moreover, in the test on ΔF508 CFTR [9] (cAMP plus NS004, Vero cells), the “response time to peak of cAMP-stimulated Cl- current” value is on record as “greatly enhanced the response time to peak”. The “chloride current of the cAMP-stimulated channel” value at wild-type CFTR [11] (NS004 added to cAMP-stimulated wild-type CFTR, oocytes) is “only a marginal enhancement of chloride current; also recorded: only a small potentiation of cAMP-stimulated current”. In addition, on wild-type CFTR [11] (NS004 alone, Xenopus oocytes, wild-type CFTR), the “reversibility of the increase in Cl- current” value is listed as “rapidly reversible; also recorded: reversibly open”. For the same compound, the Cl- current entry at wild-type CFTR [11] (NS004 applied alone, unstimulated wild-type CFTR, Xenopus oocytes) is recorded as “large increase in Cl^- current; also recorded: great efficacy; also recorded: significant increase in the Cl^- current”. The “potency (concentration range) for opening unstimulated wild-type CFTR” value on wild-type CFTR [11] (Xenopus oocytes) is reported as “sub-micromolar to micromolar”. In test [12], the “channel response to drug application” value is listed as “did not respond to drug application”.
